The source of these data is patent publication US12049439B2 (OrsoBio, Inc., priority 2018, dated 2024).

The term EC50 denotes the concentration giving half of the maximal effect.

In this assay the test system is PC-3 cells. Briefly: PC-3 Oxygen Rate Consumption (OCR) Assay. The conditions noted are these: Homo sapiens, 0.05 h, medium with 2% FBS, OCR at 3-min post-injection normalized to % increase over DMSO-treated cells, concentration for half-maximal OCR increase, read-out: EC50-PC3-OCR-FBS-3min. It is filed as cell-based. The essentials:
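Oxygen consumption read on Seahorse XFe96: three basal measurements, then compound injection and 10 cycles over 30 min. EC50 defined as concentration giving half-maximal OCR rise, using 3-min post-injection values as % above DMSO controls, six replicates per treatment, in PC-3 cells in glucose/pyruvate medium.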
As to `CC(C)(C)S(=O)(=O)Nc1cc(C(F)(F)F)ccc1C(=O)NC12CC(C(F)(F)F)(C1)C2` [Example 110, 2-((1,1-dimethylethyl)sulfonamido)-4-(trifluoromethyl)-N-(3-(trifluoromethyl)bicyclo[1.1.1]pentan-1-yl)benzamide], the EC50 amounted to 0.445 µM. In the case of `CS(=O)(=O)Nc1ccc(C(F)(F)F)cc1C(=O)NC12CC(Cl)(C1)C2` [Example 80, N-(3-chlorobicyclo[1.1.1]pentan-1-yl)-2-(methylsulfonamido)-5-(trifluoromethyl)benzamide], the EC50 turned out to be 2.54 µM. As for `O=C(NC12CC(C(F)(F)F)(C1)C2)c1ccc(C(F)(F)F)cc1NS(=O)(=O)c1ccc(-c2ncccn2)cc1` [Example 101, 2-((4-(pyrimidin-2-yl)phenyl)sulfonamido)-4-(trifluoromethyl)-N-(3-(trifluoromethyl)bicyclo[1.1.1]pentan-1-yl)benzamide], the EC50 came to 1.18 µM.

For the compound `CC(C)(C)P(=O)(c1ccc(S(=O)(=O)Nc2cc(C(F)(F)F)ccc2C(=O)NC23CCC(C#N)(CC2)CC3)cc1)C(C)(C)C` [Example 186, N-(4-cyanobicyclo[2.2.2]octan-1-yl)-2-((4-(di-tert-butylphosphoryl)phenyl)sulfonamido)-4-(trifluoromethyl)benzamide], the EC50 is 12.6 µM. Regarding `CC(C)(C)[S+]([O-])Nc1ccc(C(F)(F)F)cc1C(=O)NC12CC(C(F)(F)F)(C1)C2` (stereo not shown) [Example 192, 2-((tert-butylsulfinyl)amino)-5-(trifluoromethyl)-N-(3-(trifluoromethyl)bicyclo[1.1.1]pentan-1-yl)benzamide], the EC50 was 14.7 µM. Turning to `CS(=O)(=O)Nc1ccc(F)cc1C(=O)NC12CC(C(F)(F)F)(C1)C2` [Example 140, 5-fluoro-2-(methylsulfonamido)-N-(3-(trifluoromethyl)bicyclo[1.1.1]pentan-1-yl)benzamide], the EC50 amounted to 36.1 µM. As to `Cc1ncc(S(=O)(=O)Nc2cc(C(F)(F)F)ccc2C(=O)NC23CC(C(F)(F)F)(C2)C3)s1` [Example 62, 2-((2-methylthiazole)-5-sulfonamido)-4-(trifluoromethyl)-N-(3-(trifluoromethyl)bicyclo[1.1.1]pentan-1-yl)benzamide], the EC50 worked out at 1.53 µM.

As to `N#CC12CCC(NC(=O)c3cc(S(F)(F)(F)(F)F)ccc3NS(=O)(=O)N3CCOCC3)(CC1)CC2` [Example 206, N-(4-cyanobicyclo[2.2.2]octan-1-yl)-2-(morpholine-4-sulfonamido)-5-(pentafluoro-λ^6-sulfanyl)benzamide], the EC50 was 2.71 µM. To `CS(=O)(=O)c1ccc(S(=O)(=O)Nc2cc(C(F)(F)F)ccc2C(=O)NC23CC(F)(C2)C3)cc1` [Example 20, N-(3-fluorobicyclo[1.1.1]pentan-1-yl)-2-((4-(methylsulfonyl)phenyl)sulfonamido)-4-(trifluoromethyl)benzamide] belongs 14.3 µM; to `N#CC12CCC(NC(=O)c3cc(C(F)(F)F)ccc3NS(=O)(=O)N3CCOCC3)(CC1)CC2` [Example 178, N-(4-cyanobicyclo[2.2.2]octan-1-yl)-2-(morpholine-4-sulfonamido)-5-(trifluoromethyl)benzamide], 5.93 µM.

For the compound `CC(C)S(=O)(=O)Nc1cc(C#N)ccc1C(=O)NC12CCC(C#N)(CC1)CC2` [Example 78, 4-cyano-N-(4-cyanobicyclo[2.2.2]octan-1-yl)-2-((1-methylethyl)sulfonamido)benzamide], the EC50 was determined as 39.8 µM. The same measure for `[2H]C([2H])([2H])C(c1ccc(S(=O)(=O)Nc2ccc(S(C)(=O)=O)cc2C(=O)NC23CC(C(F)(F)F)(C2)C3)cc1)(C([2H])([2H])[2H])C([2H])([2H])[2H]` [Example 151, 2-((4-(2-(methyl-d3)propan-2-yl-1,1,1,3,3,3-d6)phenyl)sulfonamido)-5-(methylsulfonyl)-N-(3-(trifluoromethyl)bicyclo[1.1.1]pentan-1-yl)benzamide]: 9.39 µM; for `CS(=O)(=O)Nc1cc(S(F)(F)(F)(F)F)ccc1C(=O)NC12CCC(C#N)(CC1)CC2` [Example 117, N-(4-cyanobicyclo[2.2.2]octan-1-yl)-2-(methylsulfonamido)-4-(pentafluoro-λ^6-sulfanyl)benzamide]: 4.02 µM; for `O=C(NC12CC(C(F)(F)F)(C1)C2)c1ccc(OC(F)(F)F)cc1NS(=O)(=O)N1CCS(=O)(=O)CC1` [Example 245, 2-((1,1-dioxidothiomorpholine)-4-sulfonamido)-4-(trifluoromethoxy)-N-(3-(trifluoromethyl)bicyclo[1.1.1]pentan-1-yl)benzamide]: 3.84 µM. Take `O=C(NC12CCC(F)(CC1)CC2)c1cc(C(F)(F)F)ccc1NS(=O)(=O)Cc1ccccc1` [Example 197, N-(4-fluorobicyclo[2.2.2]octan-1-yl)-2-((phenylmethyl)sulfonamido)-5-(trifluoromethyl)benzamide]: the EC50 came out at 0.893 µM. To `Cc1ncsc1CCS(=O)(=O)Nc1ccc(C(F)(F)F)cc1C(=O)NC12CCC(C#N)(CC1)CC2` [Example 200, N-(4-cyanobicyclo[2.2.2]octan-1-yl)-2-((2-(4-methylthiazol-5-yl)ethyl)sulfonamido)-5-(trifluoromethyl)benzamide] belongs 5.09 µM. As to `CCS(=O)(=O)c1ccc(S(=O)(=O)Nc2cc(C(F)(F)F)ccc2C(=O)NC23CC(C#N)(C2)C3)cc1` [Example 25, N-(3-cyanobicyclo[1.1.1]pentan-1-yl)-2-((4-(ethylsulfonyl)phenyl)sulfonamido)-4-(trifluoromethyl)benzamide], the half-maximal effective concentration (EC50) is at least 50 µM. The same measure for `O=C(NC12CC(C(F)(F)F)(C1)C2)c1ccc(C(F)(F)F)cc1NS(=O)(=O)c1ccc(S(=O)(=O)C(F)(F)F)cc1` [Example 33, 4-(trifluoromethyl)-N-(3-(trifluoromethyl)bicyclo[1.1.1]pentan-1-yl)-2-((4-((trifluoromethyl)sulfonyl)phenyl)sulfonamido)benzamide]: 1.93 µM; for `Cc1ncsc1CCS(=O)(=O)Nc1ccc(C(F)(F)F)cc1C(=O)NC12CCC(F)(CC1)CC2` [Example 201, N-(4-fluorobicyclo[2.2.2]octan-1-yl)-2-((2-(4-methylthiazol-5-yl)ethyl)sulfonamido)-5-(trifluoromethyl)benzamide]: 1.29 µM. To `CN(C)S(=O)(=O)Nc1ccc(C(F)(F)F)cc1C(=O)NC1CC2CCC(C1)N2S(C)(=O)=O` (stereo not shown) [Example 174, 2-((N,N-dimethylsulfamoyl)amino)-N-(8-(methylsulfonyl)-8-azabicyclo[3.2.1]octan-3-yl)-5-(trifluoromethyl)benzamide] belongs 108 µM; to `CC(C)(C)S(=O)(=O)Nc1ccc(Cl)cc1C(=O)NC12CC(C(F)(F)F)(C1)C2` [Example 84, 5-chloro-2-((1,1-dimethylethyl)sulfonamido)-N-(3-(trifluoromethyl)bicyclo[1.1.1]pentan-1-yl)benzamide], 1.04 µM. As to `CN(C)S(=O)(=O)Nc1ccc(C(F)(F)F)cc1C(=O)NC12CC3CC(CC(C#N)(C3)C1)C2` [Example 177, N-((1R,5R)-3-cyanoadamantan-1-yl)-2-((N,N-dimethylsulfamoyl)amino)-5-(trifluoromethyl)benzamide], the EC50 came out at 1.86 µM. Turning to `N#CC1CN(S(=O)(=O)Nc2ccc(C(F)(F)F)cc2C(=O)NC23CC(C(F)(F)F)(C2)C3)C1` [Example 234, 2-((3-cyanoazetidine)-1-sulfonamido)-5-(trifluoromethyl)-N-(3-(trifluoromethyl)bicyclo[1.1.1]pentan-1-yl)benzamide], the EC50 is 3.86 µM. To `N#CC12CCC(NC(=O)c3ccc(F)cc3NS(=O)(=O)CCC(F)(F)F)(CC1)C2` [Example 223, N-(4-cyanobicyclo[2.2.1]heptan-1-yl)-4-fluoro-2-((3,3,3-trifluoropropyl)sulfonamido)benzamide] belongs 4.43 µM; to `CC(C)(C)c1ccc(S(=O)(=O)Nc2cc(C(F)(F)F)ccc2C(=O)NC23CC(C#N)(C2)C3)cc1` [Example 7, 2-((4-(tert-butyl)phenyl)sulfonamido)-N-(3-cyanobicyclo[1.1.1]pentan-1-yl)-4-(trifluoromethyl)benzamide], 0.813 µM. On to `N#CC1CCN(S(=O)(=O)Nc2ccc(C(F)(F)F)cc2C(=O)NC23CCC(C#N)(CC2)CC3)CC1` [Example 233, N-(4-cyanobicyclo[2.2.2]octan-1-yl)-2-((4-cyanopiperidine)-1-sulfonamido)-5-(trifluoromethyl)benzamide], for which the EC50 was found to be 4.79 µM. Turning to `COC12CC(NC(=O)c3cc(C(F)(F)F)ccc3NS(C)(=O)=O)(C1)C2` [Example 170, N-(3-methoxybicyclo[1.1.1]pentan-1-yl)-2-(methylsulfonamido)-5-(trifluoromethyl)benzamide], the EC50 was found to be 44.8 µM. Take `CCS(=O)(=O)Nc1ccc(C(F)(F)F)cc1C(=O)NC12CCC(C#N)(CC1)CC2` [Example 120, N-(4-cyanobicyclo[2.2.2]octan-1-yl)-2-(ethylsulfonamido)-5-(trifluoromethyl)benzamide]: the EC50 worked out at 8.01 µM. `N#CC12CCC(NC(=O)c3cc(C(F)(F)F)ccc3NS(=O)(=O)N3CC(OC(F)(F)F)C3)(CC1)CC2` [Example 227, N-(4-cyanobicyclo[2.2.2]octan-1-yl)-2-((3-(trifluoromethoxy)azetidine)-1-sulfonamido)-5-(trifluoromethyl)benzamide]: the EC50 came out at 1.45 µM. As for `CC(C)S(=O)(=O)Nc1cc(C(F)(F)F)ccc1C(=O)NC12CC(C#N)(C1)C2` [Example 60, N-(3-cyanobicyclo[1.1.1]pentan-1-yl)-2-((1-methylethyl)sulfonamido)-4-(trifluoromethyl)benzamide], the EC50 worked out at 6.22 µM.

`CS(=O)(=O)c1ccc(S(=O)(=O)Nc2cc(C(F)(F)F)ccc2C(=O)NC23CC4CC(CC(C4)C2)C3)cc1` [Example 10, N-((3s,5s,7s)-adamantan-1-yl)-2-((4-(methylsulfonyl)phenyl)sulfonamido)-4-(trifluoromethyl)benzamide]: the EC50 amounted to 1.22 µM.
